Assay results reported in article PMC5876388 (Scientific Reports, 2018).

Legend:
nicastrin = target: T1, nicastrin (Homo sapiens, UniProt Q92542); test: Western blot in HPB-ALL cells; format: cell-based
T1 construct: endogenous in cells; host or cells: HPB-ALL
Description: (A) Schematic representation of γ-secretase complex. γ-Secretase is composed of four membrane proteins: presenilin1 (PS1), nicastrin (NCT), anterior pharynx defective 1 (APH-1) and presenilin enhancer 2 (PEN-2). […] (E,F) Relative protein levels of nicastrin mature and immature analyzed by densitometry. […] P values were analyzed by Student’s t test.
Media also contained different concentrations of compound. Cells were incubated at 37 °C for 72 h (12 h, when treatment with MG132). After incubation, cells were centrifuged and collected, and then washed with 500 μL of PBS twice. To prepare cell lysate and confirm protein expression levels, the same method as described above was used.

Cytotoxicity test, FMCA = format: cell-based, human; settings: human, HEK293 cells, FMCA, read-out: IC50 cytotoxicity 293
Description: The medium was exchanged to fresh medium with different concentrations of compound and cells were incubated for 72 h.

[1] = tested on: Notch signaling (LS174T Notch cells); test: Notch signaling transcriptional activity assay (luciferase reporter, T-REx system); format: cell-based; settings: Homo sapiens, LS174T, 12 h, read-out: IC50 of Notch signal inhibitory activity (luciferase)
Excerpt: We constructed a cell-based reporter assay with the T-Rex system to evaluate Notch signaling inhibitory activity. Without doxycycline (Dox), the tetracycline repressor (TetR) inhibits the expression of N-terminally FLAG-tagged mouse Notch1(1704–2531), which is 40 aa longer than NICD at the N-terminus. In the presence of Dox, Dox binds to the TetR to release the inhibition of expression of Notch1(1704–2531). Cleavage of Notch1(1704–2531) by γ-secretase generates NICD, which then translocates to the nucleus and forms a heterotrimer with RBP-J driving luciferase transcription (Fig. 2). This assay cells (LS174T Notch cells) was stably incorporated with pGL4.20 luciferase plasmid which has 12 × RBP-J binding site (12 copies of […])-β-globin promoter. Cell viability was measured using a fluorometric microculture cytotoxicity assay. […] The composition of the G. speciosa MeOH extract was partitioned successively with hexane, EtOAc, nBuOH, and water.
Figure 2 The T-REx assay system. Without Dox, expression of Notch1(1704–2531) is suppressed by TetR. The addition of Dox inactivates TetR to initiate expression of Notch1(1704–2531), which is then cleaved by endogenous γ-secretase to form NICD. NICD then translocates to the nucleus and forms a heterotrimer with RBP-J and MAML that binds to a 12× RBP-J binding site to drive luciferase expression. Luciferase activity was detected as Notch signaling pathway activity. Dox: doxycycline, TetR: tetracycline repressor, Luc.: luciferase.
Assay cells (LS174T Notch cells: 2 × 10^4 cells/well) were incubated in a 96-well white plate at 37 °C for 12 h. After incubation, 50 ng/mL Dox was added to each well to induce expression of exogenous Notch1(1704–2531) protein. After incubation at 37 °C for 12 h, the medium was changed to Dox-free medium containing individual samples. Luciferase activity was measured after treatment at 37 °C for 12 h. Cell viability was evaluated by the FMCA method at the same time. These assays were performed in 0.1% DMSO (n = 3). Error bars represent SD.
In a 96-well white plate, Cells (LS174T Notch cells; 2 × 10^4 cells per well) were cultured at 37 °C for 12 h. To express Notch1(1704–2531) protein in the cells, doxycycline (50 ng/mL) was added to each well, and cells were cultured at 37 °C for 12 h. Medium was changed to doxycycline-free medium containing each sample, then cells were incubated with at 37 °C for 12 h. A microplate luminometer (Thermo Fisher Scientific Inc., Waltham, USA) and the Bright-Glo™ Luciferase Assay System (Promega Co., Madison, USA) were used for measurement of Luciferase activity. Fluorometric Microculture Cytotoxicity Assay (FMCA) was used for measurement of cell viability of the sample-treated cells. After incubation of assay cells (2×10^4 cells per well) in a 96-well black plate at 37 °C for 24 h, samples addition was performed at the same time as the luciferase assay. The assay cells were cultures at 37 °C for 12 h. A fluorescence plate reader (Thermo Fisher Scientific Inc., Waltham, USA) was used for determination of cell viability by FMCA.

T1 sequence (Q92542 34-709): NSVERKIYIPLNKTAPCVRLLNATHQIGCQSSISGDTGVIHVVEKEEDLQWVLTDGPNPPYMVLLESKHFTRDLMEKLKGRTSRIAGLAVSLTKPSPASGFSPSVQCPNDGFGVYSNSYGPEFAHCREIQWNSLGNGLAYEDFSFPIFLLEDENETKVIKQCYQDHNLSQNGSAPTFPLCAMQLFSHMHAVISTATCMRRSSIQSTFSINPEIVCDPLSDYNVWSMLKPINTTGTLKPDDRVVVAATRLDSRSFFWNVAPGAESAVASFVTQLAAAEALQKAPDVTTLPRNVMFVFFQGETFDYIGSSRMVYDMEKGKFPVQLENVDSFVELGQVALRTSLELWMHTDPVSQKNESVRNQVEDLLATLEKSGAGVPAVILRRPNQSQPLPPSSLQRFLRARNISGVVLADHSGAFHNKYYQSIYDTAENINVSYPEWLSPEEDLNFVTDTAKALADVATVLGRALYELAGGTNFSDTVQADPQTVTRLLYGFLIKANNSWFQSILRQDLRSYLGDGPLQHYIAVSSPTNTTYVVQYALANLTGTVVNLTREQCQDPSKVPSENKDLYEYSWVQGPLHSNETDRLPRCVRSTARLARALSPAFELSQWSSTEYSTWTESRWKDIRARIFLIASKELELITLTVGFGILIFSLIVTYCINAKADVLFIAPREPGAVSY

COc1c(O)cc2oc3cc(O)c(CC=C(C)C)c(O)c3c(=O)c2c1C/C=C(\C)CCC=C(C)C [Compound 2, cowanin]
immature versus mature nicastrin (nicastrin; 15 μM, 12 h, densitometry): decreased immature nicastrin stronger than mature nicastrin | nicastrin levels (nicastrin; 72 h, Western blot): reduced | decrease in nicastrin expression with proteasome inhibitor MG132 (nicastrin; cowanin 15 μM + MG132 5 μM, 12 h): not so marked | IC50 at 72 h (Cytotoxicity test, FMCA): 15.1 µM | IC50 [1]: 2.4 µM
